What is called Kb is the affinity of an antagonist, worked out from how it opposes an agonist. A high value points to lower antagonist affinity. One may read the AUC as concentration integrated over time. A higher AUC goes with more exposure.

The source of these data is publication PMC5222732 (Journal of medicinal chemistry, 2016).

One series is described as follows: Plasma stability assay. The series is classed as in vitro ADME. The note with it: 37 °C.
For series [1], the system named is Sprague-Dawley rats. The series is described as follows: Tail heat algesia test. The format is in vivo. Conditions: rat, 1 mg/kg iv, morphine 4 mg/kg sc.
Series [2] is described as follows: In vivo brain uptake study, LC-MS/MS.
Series [3] concerns the target bovine serum albumin (BSA) (Bos taurus, UniProt P02769). The series is described as follows: Determination of serum albumin binding. The format is in vitro ADME. The note with it: BSA 20 mg/mL, pH 7.4, 37 °C, 24-96 h.
The subject of series [4] is Sprague-Dawley rats. The series is described as follows: Hot plate algesia test. The series is classed as in vivo. Conditions: rat; for effect on morphine analgesia, heat withdrawal threshold (hot plate): morphine 4 mg/kg sc.
Series [5] has as its target μ opioid receptor (MOR) (Rattus norvegicus, UniProt P33535). The series is classed as binding.
Series [6] addresses mouse vas deferens (MVD), DOR (Mus musculus, UniProt P32300). The series is described as follows: DOR-representative MVD functional assay. The format is cell-based.
For the next series, the target named is κ opioid receptor (KOR) (Cavia porcellus, UniProt P41144). Nature of the series: GPI functional assay, κ antagonist Ke. The format is cell-based, guinea pig.
Chain of κ opioid receptor (KOR) (P41144 whole entry): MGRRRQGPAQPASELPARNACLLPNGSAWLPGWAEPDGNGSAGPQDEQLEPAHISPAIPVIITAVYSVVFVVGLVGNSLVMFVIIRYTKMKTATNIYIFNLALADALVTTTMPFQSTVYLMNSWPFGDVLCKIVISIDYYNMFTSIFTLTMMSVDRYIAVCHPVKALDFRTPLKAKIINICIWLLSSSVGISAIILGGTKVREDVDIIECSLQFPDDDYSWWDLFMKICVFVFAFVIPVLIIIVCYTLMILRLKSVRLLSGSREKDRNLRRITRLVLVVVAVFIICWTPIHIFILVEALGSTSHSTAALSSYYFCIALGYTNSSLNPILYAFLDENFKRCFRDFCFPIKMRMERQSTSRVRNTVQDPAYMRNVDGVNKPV
In series [7] the test system is μ opioid receptor (MOR). The format is cell-based, guinea pig.
For the next series, the target named is δ receptors (DOR) (Rattus norvegicus, UniProt P33533). The series is described as follows: δ opioid receptor binding, [3H]DSLET displacement from rat brain membranes. Conditions: compared with cyclodal.
Chain of δ receptors (DOR) (P33533 whole entry): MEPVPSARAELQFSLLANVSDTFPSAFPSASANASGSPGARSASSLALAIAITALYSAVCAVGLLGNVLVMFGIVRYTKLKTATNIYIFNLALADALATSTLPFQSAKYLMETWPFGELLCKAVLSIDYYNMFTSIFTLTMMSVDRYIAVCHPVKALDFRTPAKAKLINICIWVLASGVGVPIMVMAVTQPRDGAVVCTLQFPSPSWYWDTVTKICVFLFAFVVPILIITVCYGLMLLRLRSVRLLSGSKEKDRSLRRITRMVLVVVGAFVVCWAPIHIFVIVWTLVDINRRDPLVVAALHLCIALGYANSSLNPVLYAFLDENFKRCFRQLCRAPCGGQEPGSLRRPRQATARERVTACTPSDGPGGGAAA

“And” between values parts separate entries of the source, which are not always exact repeats. Identical values can stand only once. Like-named read-outs stand apart in the source and are kept apart here.

Chain of mouse vas deferens (MVD), DOR (P32300 whole entry): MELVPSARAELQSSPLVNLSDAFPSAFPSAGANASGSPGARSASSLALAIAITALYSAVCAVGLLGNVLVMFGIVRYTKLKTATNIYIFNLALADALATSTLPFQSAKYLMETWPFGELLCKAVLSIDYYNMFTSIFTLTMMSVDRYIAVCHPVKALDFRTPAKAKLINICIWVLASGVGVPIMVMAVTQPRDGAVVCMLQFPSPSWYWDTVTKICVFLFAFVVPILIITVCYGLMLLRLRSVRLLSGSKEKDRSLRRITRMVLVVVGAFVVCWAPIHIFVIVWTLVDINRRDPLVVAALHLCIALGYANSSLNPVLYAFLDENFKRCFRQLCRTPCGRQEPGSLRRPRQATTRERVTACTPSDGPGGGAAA
Chain of μ opioid receptor (MOR) (Rattus norvegicus, UniProt P33535) (P33535 whole entry): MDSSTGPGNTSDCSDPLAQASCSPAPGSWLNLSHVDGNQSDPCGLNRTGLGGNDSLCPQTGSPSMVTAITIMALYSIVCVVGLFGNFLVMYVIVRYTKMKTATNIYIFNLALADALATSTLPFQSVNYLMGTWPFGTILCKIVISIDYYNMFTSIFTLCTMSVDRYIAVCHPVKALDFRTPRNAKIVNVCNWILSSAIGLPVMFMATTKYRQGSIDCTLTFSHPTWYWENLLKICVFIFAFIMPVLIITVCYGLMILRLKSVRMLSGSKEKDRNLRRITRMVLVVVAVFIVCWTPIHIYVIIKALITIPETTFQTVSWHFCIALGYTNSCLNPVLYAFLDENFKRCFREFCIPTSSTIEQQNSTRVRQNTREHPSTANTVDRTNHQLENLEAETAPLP
Chain of bovine serum albumin (BSA) (P02769 25-607): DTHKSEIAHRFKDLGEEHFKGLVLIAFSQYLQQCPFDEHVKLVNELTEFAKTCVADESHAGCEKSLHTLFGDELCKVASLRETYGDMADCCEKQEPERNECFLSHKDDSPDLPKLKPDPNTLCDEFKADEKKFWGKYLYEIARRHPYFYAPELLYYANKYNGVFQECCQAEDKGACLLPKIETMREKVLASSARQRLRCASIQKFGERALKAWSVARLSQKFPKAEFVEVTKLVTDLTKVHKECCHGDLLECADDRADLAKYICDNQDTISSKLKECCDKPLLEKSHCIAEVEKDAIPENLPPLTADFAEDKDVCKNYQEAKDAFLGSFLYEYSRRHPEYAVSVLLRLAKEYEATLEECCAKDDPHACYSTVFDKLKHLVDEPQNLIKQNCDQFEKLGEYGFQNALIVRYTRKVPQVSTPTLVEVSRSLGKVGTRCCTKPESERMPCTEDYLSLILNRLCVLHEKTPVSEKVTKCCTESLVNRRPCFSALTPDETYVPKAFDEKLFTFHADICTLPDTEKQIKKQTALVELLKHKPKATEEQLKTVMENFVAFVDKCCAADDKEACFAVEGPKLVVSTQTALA

On to `Cc1cc(O)cc(C)c1C[C@@H]1NC(=O)[C@H](CCCCN)NC(=O)[C@H](Cc2ccccc2)NC(=O)[C@@H](CCCNC(=N)N)NC1=O` [compound 1, c[-D-Arg-Phe-Lys-Dmt-]], for which the “stability in rat plasma” value in the series “Plasma stability assay” was “stable for up to 48 h”. For the same molecule, the “effect on tail withdrawal latency (TWL) after morphine” value in the series with Sprague-Dawley rats [1] is listed as “not at a dose of 1 mg/kg”. Moreover, the “plasma AUC” value in series [2] (male CD1 mice, 2 mg/kg iv) stood at 0.0303 µg·min/mL. Further, in series [2] (mice, 2 mg/kg iv, after administration), the “time of maximum brain concentration” value is 30 min. For the same molecule, the BSA absorption entry in [3] is reported as “No decrease in peptide peak intensity was observed”. In addition, the “effect on morphine analgesia, heat withdrawal threshold (hot plate)” value in the series with Sprague-Dawley rats [4] (1 mg/kg iv) was “not at the 1 mg/kg dose”; with Sprague-Dawley rats [4] (5 mg/kg iv) it was “morphine analgesia at the 30 min time point was reduced”. Further, at μ opioid receptor (MOR) [5], the “higher MOR binding affinity” value is given as 20 fold. For the same molecule, the “activity in the MVD assay” value in [6] is given as “low efficacy partial agonist activity”; in series [6] (listed as cyclodal) it was “weak DOR partial agonist”. For the same molecule, the Kb amounted to 0.206 ± 0.024 µM on κ opioid receptor (KOR) (GPI Ke (KOR antagonist), against dynorphin A(1-13)) and 0.0403 ± 0.0026 µM on κ opioid receptor (KOR) (GPI Ke^κ, determined against U50,488). In addition, the “GPI Ke (MOR antagonist)” value in the series on μ opioid receptor (MOR) [7] was 3.12 ± 0.20 nM and 3.06 ± 0.62 nM. Besides, in the series on μ opioid receptor (MOR) [7], the “GPI Ke^μ” value worked out at 3.26 ± 0.84 nM.
Turning to `CCCC[C@@H]1NC(=O)[C@H](Cc2ccccc2)NC(=O)[C@@H](CCCNC(=N)N)NC(=O)[C@H](Cc2c(C)cc(O)cc2C)NC1=O` [compound 4, c[-D-Arg-Phe-Nle-Dmt-]], the “activity in the MVD assay” value in series [6] is “low efficacy partial agonist activity”.
As for `Cc1cc(O)cc(C)c1C[C@@H]1NC(=O)[C@H](CCCN)NC(=O)[C@H](Cc2ccccc2)NC(=O)[C@@H](CCCNC(=N)N)NC1=O` [compound 6, c[-D-Arg-Phe-Orn-Dmt-]], the “activity in the MVD assay” value in series [6] is on record as “low efficacy partial agonist activity”. For the same molecule, the “GPI Ke^μ” value in the series on μ opioid receptor (MOR) [7] is reported as 16.8 ± 2.6 nM.
For `Cc1cc(O)cc(C)c1C[C@@H]1NC(=O)C[C@H](CCCCN)NC(=O)[C@H](Cc2ccccc2)NC(=O)[C@@H](CCCNC(=N)N)NC1=O` [compound 7, c[-D-Arg-Phe-β-hLys-Dmt-]], on μ opioid receptor (MOR) [5], the “Ki ratio μ/δ/κ” value was 1/135/6 and the “reduced/lower MOR binding affinity” value came to 2 fold. The “MVD IC50” value in [6] was “inactive”. Moreover, the “lower DOR binding affinity” value at δ receptors (DOR) stood at 11 fold. For the same molecule, on κ opioid receptor (KOR), the antagonist dissociation constant (Kb) turned out to be 0.0182 ± 0.0017 µM and the “more potent KOR antagonist” value is 2 fold. Besides, the “GPI Ke^μ” value in the series with μ opioid receptor (MOR) [7] turned out to be 10.5 ± 1.1 nM.
As to `Cc1cc(O)cc(C)c1C[C@H](N)C(=O)N[C@H](CCCNC(=N)N)C(=O)N[C@@H](Cc1ccccc1)C(=O)N[C@@H](CCCCN)C(N)=O` [compound 9, H-Dmt-D-Arg-Phe-Lys-NH2], the “brain AUC” value in [2] (male CD1 mice, 2 mg/kg iv) was 0.352 µg·min/g. The AUC in series [2] (male, CD1, mouse, in vivo, iv, 2 mg/kg) was 83 ng·h/mL. In addition, the BSA absorption entry in [3] is reported as “No decrease in peptide peak intensity was observed”.
As to `C[C@@H](O)[C@H](NC(=O)[C@H]1NC(=O)[C@H]([C@@H](C)O)NC(=O)[C@H](CCCN)NC(=O)[C@@H](Cc2c[nH]c3ccccc23)NC(=O)[C@H](Cc2ccc(O)cc2)NC(=O)[C@@H](NC(=O)[C@H](N)Cc2ccccc2)CSSC1(C)C)C(N)=O` [compound 10, H-D-Phe-c[Cys-Tyr-D-Trp-Orn-Thr-Pen]-Thr-NH2, reference compound], in series [6], the “activity in the MVD assay” value was “low efficacy partial agonist activity”. Also, on κ opioid receptor (KOR), the Kb worked out at 6.94 ± 0.58 µM. Also, in the series with μ opioid receptor (MOR) [7], the “GPI Ke^μ” value turned out to be 40.9 ± 2.7 nM.
For `CN1CC[C@]23c4c5ccc(O)c4O[C@H]2[C@@H](O)C=C[C@H]3[C@H]1C5` [morphine, reference compound], the “analgesia, heat withdrawal threshold (hot plate)” value with Sprague-Dawley rats [4] (4 mg/kg sc, compared to vehicle) is “produced analgesia compared to vehicle at the 30 and 60 min time points”.
